Measurements from patent US4737519A, “Substituted naphthalenes, indoles, benzofurans, and benzothiophenes as lipoxygenase inhibitors” (The Upjohn Company, priority 1986, dated 1988).

Tests used:
tracheal mucus velocity = conditions: given prior to antigen challenge, patients with a history of bronchial asthma; cited from earlier work
human airways = conditions: in vitro; cited from earlier work
mucus release = conditions: in vivo in the cat; cited from earlier work
canine tracheas = conditions: in vivo; cited from earlier work
trachealis muscle = experiment: isometric tension of the trachealis muscle in dogs; type: in vivo, mongrel dogs; conditions: 1.0 mg in the CTA
Experimental: (§1) Isometric tension measurements of the trachealis muscle were recorded by suturing a rigid, plastic bar to the (15) cartilaginous rings of the cut edges of the trachea, and connecting one side to a fixed restraint and the contralateral side to a force displacement transducer (Grass, Model FT 03C). An initial tension of 25-30 g/cm of trachea was applied to the muscle, and it was allowed to stabilize for 45 min. An initial zero tension point was determined before agonists were injected into the CTA, and the zero was readjusted after agonist injections.
When drug activity was assessed with arachidonic acid induced secretion, the animals were pretreated with indomethacin (Indo) (5 mg/kg) for at least 30 minutes. Before any drugs were given, however, the appropriate controls for arachidonate and indomethacin were run. The standard procedure for this was to determine the effect of (1) arachidonate alone, (2) indomethacin alone, and (3) indomethacin/arachidonate combination on normal baseline secretion. Once these control values were acquired, the drug was given. An experimental drug given in the presence of the indomethacin/arachidonate combination helps to characterize that portion of the response due to lipoxygenase products. […] Hillocks were counted for 2-3 minutes immediately after the arachidonate was given.

mucous secretion = experiment: canine tracheal mucous secretion (hillock count); type: in vivo, mongrel dogs; conditions: 1.0 mg in the CTA
Experimental: Mongrel dogs (weight 18-35 kg) were anesthetized with a mixture of chloralose (100 mg/kg) and urethane (500 mg/kg) via intravenous injection. The animals were secured to a surgery table, ventral side up, and the neck and inner right hind limb were shaved. A ventral midline incision was made in the neck using a Bovie CSVII electrosurgical unit, starting from the papillae (interramal) to the clavicle thus exposing the trachea. An endotracheal tube was secured into the lower trachea. The animals were then connected via the endotracheal tube to a Harvard respirator (Model 607A) that delivered room air at a constant tidal volume and frequency. Two polyethylene catheters were connected to the endotracheal tube, and one was connected to a medical gas analyzer (Beckman, Model LB-2) that continuously measured the carbon dioxide (CO2) content of the expired air for determination of end tidal CO2. The other was connected to a pressure transducer (Statham, Model PMI 131TC+2.5-350) for the measurement of airway press ure.
A second incision made in the inner right hind limb to expose the femoral artery and vein was made for the catheterization of these large vessels. A polyethylene catheter was tied into the artery and connected to a pressure transducer (Statham, Model P231D) for the measurement of blood pressure. This catheter also allowed for samples of arterial blood to be collected for measurements of blood gas tension using a blood gas analyser (Corning, Model 175). Another polyethylene catheter was tied into the femoral vein which was used for injecting additional anesthetic and paralyzing drugs. Gallamine triethiodide (20-40 mg) was used to paralyze the respiratory muscles and a single injection of sodium bicarbonate 7.5% (0.5 mg/kg) in conjunction with a continuous i.v. drip of 5% dextrose in 0.9% saline helped to maintain fluid balance. All physiological measurements were recorded and monitored on a polygraph (Grass instruments, Model 7D). Once the femoral cutdown was completed, surgery on the neck region resumed. The carotid artery was exposed and the "knuckle" (a portion of the carotid which bisects to supply blood flow to the trachea and neck muscles) was located. A small polyethylene catheter was then inserted into the muscular branch of the cranial thyroid artery (CTA). This allowed for close arterial injection of experimental agents. The strap muscles were removed and the mucosal surface of the trachea exposed by cutting along the anterior midline of the upper two-thirds of the extrathoracic trachea and pulling the cut edges widely apart. The exposed mucosa was checked for proper canulation by blanching and appropriate adjustments of the canula into the CTA were made until blanching was achieved.
as §1
To visualize secretions coming from the submucosal gland duct openings of the trachea, powdered tantalum, an inert metal (2-5 microns in size) was sprayed on the trachea until it formed a uniform layer over the mucosal surface. The tantalum itself did nothing to normal secretion, but prevented the normal ciliary dispersion of secretions from the gland duct openings; these secretions, therefore, caused elevations ("hillocks") in the tantalum layer. The number of hillocks formed in a 1.2 cm^2 field, 1-2 cm from the larynx, were counted and their images were recorded with a video camera (Hitachi CCTV, Model HV-17TU) mounted on a dissecting microscrope (Zeiss Ompi-1) with a beam splitter. […]

## CCCc1c(OCC(O)COc2ccc3c(=O)cc(C(=O)O)oc3c2CCC)ccc(C(C)=O)c1O (stereo not drawn) [FPL 55712]
Tracheal mucus velocity
  reversing the tracheal mucus velocity: effective in reversing the tracheal mucus velocity

## CCCCC/C=C\C\C=C/C=C/C=C/[C@@H](SC[C@H](NC(=O)CC[C@H](N)C(=O)O)C(=O)NCC(=O)O)[C@@H](O)CCCC(=O)O [LTC4, leukotriene C4]
Human airways
  release of mucus from human airways: increase the release of mucus
Mucus release
  stimulating mucus release: effective in stimulating mucus release in vivo in the cat
Canine tracheas
  release of mucus from canine tracheas: increase the release of mucus

## CCCCC/C=C\C\C=C/C=C/C=C/[C@@H](SC[C@H](N)C(=O)NCC(=O)O)[C@@H](O)CCCC(=O)O [LTD4, leukotriene D4]
Human airways
  release of mucus from human airways: increase the release of mucus
Canine tracheas
  release of mucus from canine tracheas: increase the release of mucus

## CCCCC/C=C\C/C=C\C/C=C\C/C=C\CCCC(=O)O [arachidonate, arachidonic acid]
Human airways
  release of mucus from human airways: release mucus from human airway
Trachealis muscle
  effect on the trachealis muscle: slight stimulation followed by relaxation of the trachealis muscle
Mucous secretion
  effect on mucus secretion: stimulates mucus secretion
